Assay results reported in PMC11876601 (Molecular Systems Biology, 2025).
Several values for one entry are separate records, joined by “and”; a condition that tells them apart may be missing. Equal entries are not always repeated. Where two headings read alike, the source gives them in different places.

Tested on: AsPC-1 cells
Assay: Cell proliferation assay, chemodrug + ATR inhibitor (Incucyte confluence, 72 h);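 also: underlying read-out for every value is AsPC-1 confluence after 72 h incubation at 37 °C and 5% CO2, divided by that well's starting confluence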
Settings: for Curve slope / Curve bottom / Curve top: fitted dose-response curve; for Curve bottom / Curve top: relative response; for EC50: Homo sapiens
[1] = AsPC1, Experiment ATRi (ATR inhibitor alone)
[2] = AsPC1, Experiment GEM+ATRi_dose1
[3] = AsPC1, Experiment GEM+ATRi_dose2
[4] = AsPC1, Experiment GEM+ATRi_dose3

Protocol: Cells were seeded at 5000 cells/well into 96-well flat bottom plates (Eppendorf) and allowed to attach overnight. […] Cells were incubated for 72 h at 37 °C and 5% CO2. Cell confluence readouts at 72 h were either normalized to their initial confluence using the Incucyte software (AsPC-1) or used without prior normalization (all others). […] Each experiment was performed in triplicates, the data was plotted as mean ± standard deviation (s.d.).

SMILES: C[C@@H]1COCCN1c1cc(C2([S@](C)(=N)=O)CC2)nc(-c2cc[nH]c3nccc2-3)n1 [Ceralasertib]
- Curve slope [1]: 2.93 and 3.34 and 3.10
- Curve bottom [1]: 1.16 and 0.93 and 0.99
- Curve top [1]: 0.45 and 0.34 and 0.35
- Curve slope [2]: 1.26 and 1.52 and 1.58
- Curve bottom [2]: 1.03 and 0.96 and 0.97
- Curve top [2]: 0.53 and 0.41 and 0.45
- Curve bottom [3]: 1.06 and 0.94 and 0.90
- Curve top [3]: 0.50 and 0.38 and 0.42
- Curve slope [4]: 1.68 and 1.97
- Curve bottom [4]: 0.98
- Curve top [4]: 0.46 and 0.35 and 0.39
- Raw data (confluence at 72 h/confluence at 0 h) (Ceralasertib experiment, replicate R1, titrated drug dose 3 nM): 3.36
- Raw data (confluence at 72 h/confluence at 0 h) (Ceralasertib experiment, replicate R1, titrated drug dose 10 nM): 3.44
- Raw data (confluence at 72 h/confluence at 0 h) (Ceralasertib experiment, replicate R1, titrated drug dose 30 nM): 3.6
- Raw data (confluence at 72 h/confluence at 0 h) (Ceralasertib experiment, replicate R1, titrated drug dose 100 nM): 3.35
- Raw data (confluence at 72 h/confluence at 0 h) (Ceralasertib experiment, replicate R1, titrated drug dose 300 nM): 3.69
- Raw data (confluence at 72 h/confluence at 0 h) (Ceralasertib experiment, replicate R1, titrated drug dose 1000 nM): 3.19
- Raw data (confluence at 72 h/confluence at 0 h) (Ceralasertib experiment, replicate R1, titrated drug dose 3000 nM): 1.77
- Raw data (confluence at 72 h/confluence at 0 h) (Ceralasertib experiment, replicate R1, titrated drug dose 10000 nM): 1.38
- Raw data (confluence at 72 h/confluence at 0 h) (Ceralasertib experiment, replicate R2, titrated drug dose 3 nM): 3.66
- Raw data (confluence at 72 h/confluence at 0 h) (Ceralasertib experiment, replicate R2, titrated drug dose 10 nM): 3.73
- Raw data (confluence at 72 h/confluence at 0 h) (Ceralasertib experiment, replicate R2, titrated drug dose 30 nM): 3.9
- Raw data (confluence at 72 h/confluence at 0 h) (Ceralasertib experiment, replicate R2, titrated drug dose 100 nM): 2.91
- Raw data (confluence at 72 h/confluence at 0 h) (Ceralasertib experiment, replicate R2, titrated drug dose 300 nM): 3.91
- Raw data (confluence at 72 h/confluence at 0 h) (Ceralasertib experiment, replicate R2, titrated drug dose 1000 nM): 3.25
- Raw data (confluence at 72 h/confluence at 0 h) (Ceralasertib experiment, replicate R2, titrated drug dose 3000 nM): 1.61
- Response (GEM 0 nM, ATRi 100 nM): 3.13
- Response (GEM 0 nM, ATRi 300 nM): 3.19
- Response (GEM 0 nM, ATRi 1000 nM): 3.06
- Response (GEM 1 nM + ATRi 100 nM): 3.00
- Response (GEM 1 nM + ATRi 300 nM): 3.18
- Response (GEM 1 nM + ATRi 1000 nM): 2.76
- Response (GEM 3 nM + ATRi 100 nM): 3.15
- Response (GEM 3 nM + ATRi 300 nM): 3.26
- Response (GEM 3 nM + ATRi 1000 nM): 2.99
- Response (GEM 10 nM + ATRi 100 nM): 2.74
- Response (GEM 10 nM + ATRi 300 nM): 3.12
- Response (GEM 10 nM + ATRi 1000 nM): 2.13
- Response (GEM 30 nM + ATRi 100 nM): 2.24
- Response (GEM 30 nM + ATRi 300 nM): 2.10
- Response (GEM 100 nM + ATRi 100 nM): 1.89
- Response (GEM 100 nM + ATRi 1000 nM): 1.42
- Response (GEM 300 nM + ATRi 100 nM): 1.67
- Response (GEM 300 nM + ATRi 300 nM): 1.55
- Response (GEM 1000 nM + ATRi 100 nM): 1.60
- Response (GEM 1000 nM + ATRi 300 nM): 1.47
- Response (GEM 3000 nM + ATRi 100 nM): 1.61
- Response (GEM 3000 nM + ATRi 300 nM): 1.44
- EC50 (ASPC1, 72 h, AsPC1, Experiment ATRi (ATR inhibitor alone), single replicates R1-R3): 1810 nM
- EC50 (ASPC1, 72 h, read-out: EC50 (cell growth), ATR inhibitor as single agent): 1720 nM
- EC50 (ASPC1, 72 h, read-out: EC50 mean [nM], AsPC1, Experiment ATRi (ATR inhibitor alone), mean of replicates): 1720 nM
- EC50 (ASPC1, 72 h, read-out: pEC50, AsPC1 (converted), Experiment ATRi (ATR inhibitor alone), single replicates R1-R3): 1820 nM
- EC50 (ASPC1, read-out: EC50 mean [nM], AsPC1, Experiment ATRi (ATR inhibitor alone), mean of replicates): 1720 nM
- Response (experiment ATRi, GEM 0 nM, ATRi 100 nM, AsPC1, replicates R2, R3): 1.95
- Response (experiment GEM+ATRi_dose1, GEM 0 nM, ATRi 100 nM, AsPC1, replicates R2, R3): 3.76 and 3.38
- Response (experiment GEM+ATRi_dose1, GEM 1 nM, ATRi 100 nM, AsPC1, replicates R2, R3): 3.75 and 3.44
- Response (experiment GEM+ATRi_dose1, GEM 3 nM, ATRi 100 nM, AsPC1, replicates R2, R3): 3.76 and 3.47
- Response (experiment GEM+ATRi_dose1, GEM 10 nM, ATRi 100 nM, AsPC1, replicates R2, R3): 3.43
- Response (experiment GEM+ATRi_dose1, GEM 30 nM, ATRi 100 nM, AsPC1, replicates R2, R3): 2.86 and 2.80
- Response (experiment GEM+ATRi_dose1, GEM 100 nM, ATRi 100 nM, AsPC1, replicates R2, R3): 1.90 and 2.07
- Response (experiment GEM+ATRi_dose1, GEM 300 nM, ATRi 100 nM, AsPC1, replicates R2, R3): 1.72 and 1.75
- Response (experiment GEM+ATRi_dose1, GEM 1000 nM, ATRi 100 nM, AsPC1, replicates R2, R3): 1.62 and 1.67
- Response (experiment GEM+ATRi_dose1, GEM 3000 nM, ATRi 100 nM, AsPC1, replicates R2, R3): 1.55 and 1.53
- Response (experiment GEM+ATRi_dose2, GEM 0 nM, ATRi 300 nM, AsPC1, replicates R2, R3): 3.86 and 3.56
- Response (experiment GEM+ATRi_dose2, GEM 1 nM, ATRi 300 nM, AsPC1, replicates R2, R3): 3.53 and 2.33
- Response (experiment GEM+ATRi_dose2, GEM 3 nM, ATRi 300 nM, AsPC1, replicates R2, R3): 3.61 and 3.55
- Response (experiment GEM+ATRi_dose2, GEM 10 nM, ATRi 300 nM, AsPC1, replicates R2, R3): 3.45 and 3.38
- Response (experiment GEM+ATRi_dose2, GEM 30 nM, ATRi 300 nM, AsPC1, replicates R2, R3): 2.30
- Response (experiment GEM+ATRi_dose2, GEM 100 nM, ATRi 300 nM, AsPC1, replicates R2, R3): 1.61
- Response (experiment GEM+ATRi_dose2, GEM 300 nM, ATRi 300 nM, AsPC1, replicates R2, R3): 1.48 and 1.53
- Response (experiment GEM+ATRi_dose2, GEM 1000 nM, ATRi 300 nM, AsPC1, replicates R2, R3): 1.52 and 1.48
- Response (experiment GEM+ATRi_dose2, GEM 3000 nM, ATRi 300 nM, AsPC1, replicates R2, R3): 1.45
- Response (experiment GEM+ATRi_dose3, GEM 0 nM, ATRi 1000 nM, AsPC1, replicates R2, R3): 3.10 and 2.81
- Response (experiment GEM+ATRi_dose3, GEM 1 nM, ATRi 1000 nM, AsPC1, replicates R2, R3): 3.14 and 2.98
- Response (experiment GEM+ATRi_dose3, GEM 3 nM, ATRi 1000 nM, AsPC1, replicates R2, R3): 2.92
- Response (experiment GEM+ATRi_dose3, GEM 10 nM, ATRi 1000 nM, AsPC1, replicates R2, R3): 2.52 and 2.34
- Response (experiment GEM+ATRi_dose3, GEM 30 nM, ATRi 1000 nM, AsPC1, replicates R2, R3): 1.76 and 1.67
- Response (experiment GEM+ATRi_dose3, GEM 100 nM, ATRi 1000 nM, AsPC1, replicates R2, R3): 1.44
- Response (experiment GEM+ATRi_dose3, GEM 1000 nM, ATRi 1000 nM, AsPC1, replicates R2, R3): 1.42
- Raw data (confluence at 72 h/confluence at 0 h) (titrated drug dose 3 nM, replicate R3, experiment (ATRi) Ceralasertib, AsPC-1, 72 h): 3.28
- Raw data (confluence at 72 h/confluence at 0 h) (titrated drug dose 10 nM, replicate R3, experiment (ATRi) Ceralasertib, AsPC-1, 72 h): 3.61
- Raw data (confluence at 72 h/confluence at 0 h) (titrated drug dose 30 nM, replicate R3, experiment (ATRi) Ceralasertib, AsPC-1, 72 h): 3.58
- Raw data (confluence at 72 h/confluence at 0 h) (titrated drug dose 300 nM, replicate R3, experiment (ATRi) Ceralasertib, AsPC-1, 72 h): 3.61
- Raw data (confluence at 72 h/confluence at 0 h) (titrated drug dose 1000 nM, replicate R3, experiment (ATRi) Ceralasertib, AsPC-1, 72 h): 3.17
- Raw data (confluence at 72 h/confluence at 0 h) (titrated drug dose 3000 nM, replicate R3, experiment (ATRi) Ceralasertib, AsPC-1, 72 h): 1.6
- Raw data (confluence at 72 h/confluence at 0 h) (titrated drug dose 10000 nM, replicate R3, experiment (ATRi) Ceralasertib, AsPC-1, 72 h): 1.25
